Data from US20240239790A1, “7-Morpholino-1,6-Naphthyridin-5-yl Derivatives and Pharmaceutical Compositions Thereof Useful as DNA-PK Inhibitor” (adMare Therapeutics Society, priority 2021, published 2024).
Read-outs that look alike come from different tables or passages of the source.

Key:
[1] = molecular target: T1, DNA-PK phosphorylation at Serine 2056 (Homo sapiens, UniProt P78527); assay: Cellular Assay for Inhibition of DNA-PK Phosphorylation at Serine 2056 in FaDu cells (sandwich ELISA, neocarzinostatin); assay type: cell-based; settings: pSer2056 DNA-PK, neocarzinostatin 1 μg/mL, Table 1
T1 construct: FaDu cells were purchased from ATCC; host or cells: FaDu
How it was run: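 pSer2056 and total DNA-PK were measured by sandwich ELISA in BCA-normalised FaDu lysates. Cells had 1 h compound exposure (0.3% DMSO), then 2 h with 1 μg/mL final neocarzinostatin. IC50 was fitted (variable slope) to % inhibition scaled against NCS-stimulated and DMSO-only controls.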

DNA-PK = molecular target: T2, DNA-PK (Homo sapiens, UniProt P78527); assay: DNA-PK Assay for Biochemical Enzymatic Inhibition (ADP Glo Kinase assay); settings: DNA-PK enzyme, Table 1
T2 construct: purchased Invitrogen PR9107A
Protocol: A biochemical assay was performed to identify IC50 values against DNA-PK activity in a two-step reaction with a kinase reaction followed by ADP Glo™ Kinase assay Kit (Promega V9102).
Three-fold serial dilutions of compounds in DMSO were prepared in kinase assay buffer (50 mM HEPES pH 7.5, 20 mM MgCl2, 100 mM KCl, 50 μM DTT, 10 μg/ml calf thymus DNA, 0.01% Tween 20). Kinase assay buffer was used to prepare compound treatments to 0.02% DMSO (dimethyl sulphoxide) content. DMSO controls were prepared to produce a maximum and minimum luminescence signal for normalization. Substrate (Anaspec, AS-60210-5) and ATP (Promega V9102) and ATP mix was prepared by dilution in kinase assay buffer for 434.4 μM and 64.4 μM final assay concentrations, respectively. Compounds and control were added to 25 ng DNA-PK enzyme (Invitrogen, PR9107A) diluted in kinase buffer in assay plate (Corning 267459) and incubated for 15 minutes at room temperature prior to addition of substrate and ATP mix.
Throughout the assay, each time a reagent was added to the microplate, it was centrifuged for 1 minute at 1300 rcf. All reagents were added, and incubations carried out at room temperature. The reaction was then incubated for 60 minutes. ADP-ATP standards at 0, 4, 10, 40, 80, and 100% ADP (prepared as specified in the ADP Glo™ Kinase assay kit) were also added to the microplate at a volume equal to the total kinase reaction. The ADP Glo™ Kinase Assay kit was then used to quantify DNA-PK activity: following the 60-minute incubation, a 1:1 volume of ADP Glo reagent was added to all wells, then following a further 45-minute incubation, a 1:1 volume of Kinase Detection Reagent was added to all wells. After this two-step assay, plates were incubated in a Synergy-Neo2 plate reader for 30 minutes with gentle shaking, followed by endpoint luminescent read Luminescence data was normalized by subtracting the background signal and expressing all background-adjusted values as a percentage of the average maximum signal. The data was then expressed as percent inhibition by subtracting from 100% (i.e. maximum luminescent signal will be 0% inhibition) and the resulting data plotted against ten concentration points on a logarithmic scale, using GraphPad Prism. Non-linear regression analysis was performed on each concentration response curve and the log [inhibitor] vs response—variable slope (four parameters) equation was selected to generate IC50 values.

[2] = system: pDNA-PK induction in HCT116 tumour spheroids; assay: Multicellular tumour spheroid + radiation, pDNA-PK (ser2056) inhibition, immunohistochemical endpoint, HCT116; assay type: cell-based; settings: Homo sapiens, 20 Gy, 20% O2
Protocol: Multicellular tumour spheroids determination of compound inhibition of pDNA-PK induction following radiation. Tumour spheroids were grown to approximately 0.5 mm in diameter and irradiated with 20 Gy in combination with inhibitor test compounds to determine their potency. Inhibitor concentration for 50% reduction in pDNA-PK induction (IC50) was determined via immunohistochemical staining in spheroid cryosections taken 2 hours following radiation.
(§1) Spheroid+radiation pDNA-PK. Radiation: 20 Gy. Drug: serial dilution 5 or 10 μM down to 3.5 nM (11 wells). Spheroids: 3-6 spheroids per well (300-500 μm diameter). 20% 02 and 5% CO2. 96 well plate format.
Protocol: pre-incubate 1 hours with drug, irradiate with 20 Gy, post-incubate 2 hours with drug, freeze and cryosection ×3 replicates.
Endpoint: fluorescent immunostin pDNA-PK ser2056 and image on microscope.
Analysis: determine EC50 concentration that decreases pDNA-PK induction by 50% after radiation.
Multicellular tumour spheroids determination of compound inhibition of pDNA-PK induction following radiation. Tumour spheroids were grown to approximately 0.5 mm in diameter and irradiated with 20 Gy in combination with inhibitor test compounds to determine their potency. Inhibitor concentration for 50% reduction in pDNA-PK induction (IC50) was determined via immunohistochemical staining in spheroid cryosections taken 2 hours following radiation. For cell survival endpoint 8 Gy radiation was used and 3 hours following radiation spheroids were dissociated, counted and plated for colony forming endpoint.
as §1, with “format. Endpoint: fluorescent immunostain pDNA-PK ser2056 and image on microscope. Analysis: determine EC50 concentrations that decreases pDNA-PK induction by 50% after irradiation.” for “format.”
Multicellular tumour spheroids were used to determine potency of test compounds in a 3D tissue environment using inhibition of pDNA-PK induction following radiation or cell survival as the endpoint. For the pDNA-PK endpoint HCT116 or FaDU tumour spheroids were grown to approximately 0.5 mm in diameter and irradiated with 20 Gy in combination with inhibitor test compounds to determine their potency. Experiments were carried out in 96 well plates containing 0.7 mls of MEM media containing 10% FBS and 10 mM glucose under 20% O2 & 5% CO2 at 37° C. Following dilution of compounds 1:1000 from DMSO stocks, compounds were serially diluted from 10 μM down to 3.5 nM and 5-10 spheroids added. 96 well plates were constantly stirred to avoid spheroids settling during the course of the experiment. The inhibitor concentration for 50% reduction in pDNA-PK induction (EC50) was determined via immunohistochemical staining in spheroid cryosections taken 2 hours following radiation using anti-pDNA-PK (ser 2056) and fixed immediately in formalin following sectioning. For cell survival endpoint 8 Gy radiation was used and, 3 hours following radiation, spheroids were dissociated, counted and plated for colony forming endpoint. Data presented in the table compound potency as EC50 [μM].

[3] = HCT-116, 2 hours following radiation, Example 9 Study 2, read-out: Spheroid Cell line: HCT116 Immunohistochemical endpoint pDNA-PK inhibition EC50
[4] = HCT-116, Spheroid, Cell Line: HCT115 (so in the source), 2 hours following radiation, Example 7, read-out: EC50, Immunohistochemical endpoint, pDNA-PK inhibition
[5] = HCT-116, 2 h, spheroids, Example 8, read-out: Cell line: HCT116 Immunohistochemical endpoint pDNA-PK inhibition EC50

Row | IC50 [1] | IC50 (DNA-PK) | EC50 [2, 3] | EC50 [2, 4] | EC50 [2, 5] | SMILES
1 | 1 to 10 µM | 0.01 to 0.15 µM | 10 to 100 µM | 10 to 100 µM | – | O=S1(=O)CCCN1c1cnc2cc(N3CCOCC3)nc(O[C@H]3CC[C@@H](Nc4ncccn4)CC3)c2c1 [Compound 195, 2-(7-morpholino-5-(((1s,4s)-4-(pyrimidin-2-ylamino)cyclohexyl)oxy)-1,6-naphthyridin-3-yl)isothiazolidine 1,1-dioxide]
2 | 10 to 30 µM | < 0.0005 µM | 10 to 100 µM | 10 to 100 µM | – | CN(C)C(=O)COc1cnc(N[C@H]2CC[C@@H](Oc3nc(N4CCOCC4)cc4ncc(C(=O)O)cc34)CC2)nc1 [Compound 180, 5-(((1s,4s)-4-((5-(2-(dimethylamino)-2-oxoethoxy)pyrimidin-2-yl)amino)cyclohexyl)oxy)-7-morpholino-1,6-naphthyridine-3-carboxylic acid]
3 | 10 to 30 µM | 0.001 to 0.01 µM | 10 to 100 µM | 10 to 100 µM | 10 to 100 µM | CCCS(=O)(=O)NC(=O)c1cnc2cc(N3CCOCC3)nc(O[C@H]3CC[C@@H](n4ccnc4)CC3)c2c1 [Compound 173, 5-(((1s,4s)-4-(1H-imidazol-1-yl)cyclohexyl)oxy)-7-morpholino-N-(propylsulfonyl)-1,6-naphthyridine-3-carboxamide]
4 | 0.1 to 1 µM | 0.001 to 0.01 µM | 1 to 10 µM | 1 to 10 µM | – | CSc1cnc2cc(N3CCOCC3)nc(O[C@H]3CC[C@@H](Nc4ncccn4)CC3)c2c1 [Compound 200d, N-((1s,4s)-4-((3-(methylthio)-7-morpholino-1,6-naphthyridin-5-yl)oxy)cyclohexyl)pyrimidin-2-amine]
5 | 0.1 to 1 µM | 0.001 to 0.01 µM | 1 to 10 µM | 1 to 10 µM | 1 to 10 µM | O=C(Nc1ccccn1)[C@H]1CC[C@@H](Oc2nc(N3CCOCC3)cc3ncccc23)CC1 [Compound 154c, (1S,4S)-4-((7-morpholino-1,6-naphthyridin-5-yl)oxy)-N-(pyridin-2-yl)cyclohexane-1-carboxamide]
6 | 1 to 10 µM | 0.01 to 0.15 µM | 10 to 100 µM | 10 to 100 µM | – | CCOC(=O)c1cnc(NC2CCOCC2)nc1N[C@H]1CC[C@@H](Oc2nc(N3CCOCC3)cc3ncccc23)CC1 [Compound 93, Ethyl 4-(((1s,4s)-4-((7-morpholino-1,6-naphthyridin-5-yl)oxy)cyclohexyl)amino)-2-((tetrahydro-2H-pyran-4-yl)amino)pyrimidine-5-carboxylate]

The remaining lines, values behind:

Row | SMILES | IC50 [1] | IC50 (DNA-PK) | EC50 [2, 3] | EC50 [2, 4] | EC50 [2, 5]
7 | O=C(O)COc1cnc(N[C@H]2CC[C@@H](Oc3nc(N4CCOCC4)cc4ncccc34)CC2)nc1 [Compound 59, 2-((2-(((1s,4s)-4-((7-Morpholino-1,6-naphthyridin-5-yl)oxy)cyclohexyl)amino)pyrimidin-5-yl)oxy)acetic acid] | 10 to 30 µM | < 0.0005 µM | 10 to 100 µM | 10 to 100 µM | –
8 | O=C(O)COc1cnc(N[C@H]2CC[C@@H](Oc3nc(N4CCOCC4)cc4ncc(C(=O)O)cc34)CC2)nc1 [Compound 181, 5-(((1s,4s)-4-((5-(carboxymethoxy)pyrimidin-2-yl)amino)cyclohexyl)oxy)-7-morpholino-1,6-naphthyridine-3-carboxylic acid] | 10 to 30 µM | < 0.0005 µM | 10 to 100 µM | 10 to 100 µM | –
9 | CN(C)C(=O)N[C@H]1CC[C@@H](Oc2nc(N3CCOCC3)cc3ncccc23)CC1 [Compound 153, 1,1-Dimethyl-3-((1s,4s)-4-((7-morpholino-1,6-naphthyridin-5-yl)oxy)cyclohexyl)urea] | 0.1 to 1 µM | 0.001 to 0.01 µM | 10 to 100 µM | 10 to 100 µM | 10 to 100 µM
10 | c1cnc2cc(N3CCOCC3)nc(O[C@H]3CC[C@@H](Nc4ncc(OCc5ncco5)cn4)CC3)c2c1 [Compound 78, N-((1s,4s)-4-((7-Morpholino-1,6-naphthyridin-5-yl)oxy)cyclohexyl)-5-(oxazol-2-ylmethoxy)pyrimidin-2-amine] | 0.1 to 1 µM | 0.0005 to 0.001 µM | 1 to 10 µM | 1 to 10 µM | –
11 | COC(=O)c1cnc2cc(N3CCOCC3)nc(O[C@H]3CC[C@@H](n4ccnc4)CC3)c2c1 [Compound 164, methyl 5-(((1s,4s)-4-(1H-imidazol-1-yl)cyclohexyl)oxy)-7-morpholino-1,6-naphthyridine-3-carboxylate] | 1 to 10 µM | 0.001 to 0.01 µM | 1 to 10 µM | 1 to 10 µM | 1 to 10 µM
12 | Cn1ccnc1COc1cnc(N[C@H]2CC[C@@H](Oc3nc(N4CCOCC4)cc4ncccc34)CC2)nc1 [Compound 79, 5-((1-methyl-1H-imidazol-2-yl)methoxy)-N-((1s,4s)-4-((7-morpholino-1,6-naphthyridin-5-yl)oxy)cyclohexyl)pyrimidin-2-amine] | 0.1 to 1 µM | 0.0005 to 0.001 µM | 1 to 10 µM | 1 to 10 µM | –
13 | O=C(COc1cnc(N[C@H]2CC[C@@H](Oc3nc(N4CCOCC4)cc4ncccc34)CC2)nc1)N1CC(O)C1 [Compound 77, 1-(3-Hydroxyazetidin-1-yl)-2-((2-(((1s,4s)-4-((7-morpholino-1,6-naphthyridin-5-yl)oxy)cyclohexyl)amino)pyrimidin-5-yl)oxy)ethan-1-one] | 0.1 to 1 µM | < 0.0005 µM | 0.5 to 1 µM | 0.5 to 1 µM | –
14 | CCOC(=O)c1cnc(N[C@H]2CC[C@@H](Oc3nc(N4CCOCC4)cc4ncccc34)CC2)nc1NC1CCOCC1 [Compound 94, Ethyl 2-(((1s,4s)-4-((7-morpholino-1,6-naphthyridin-5-yl)oxy)cyclohexyl)amino)-4-((tetrahydro-2H-pyran-4-yl)amino)pyrimidine-5-carboxylate] | 0.1 to 1 µM | 0.01 to 0.15 µM | 1 to 10 µM | 1 to 10 µM | –
